Experimental data as given in patent US6858580B2, “Mixtures of drug-oligomer conjugates comprising polyalkylene glycol, uses thereof, and methods of making same” (Nobex Corporation, priority 2001, dated 2005).
Values belong to the compound of their own block, whether it stands above or below them.

Tests used:
[1] = Enzymatic stability: chymotrypsin digest of calcitonin-oligomer conjugates; assay type: in vitro ADME
Method: Compounds, supplied as lyophilized powders, are resuspended in 10 mM phosphate buffer pH 7.4 and then submitted for concentration determination by HPLC. The phosphate buffer is used to create a solution with a pH that is optimum for activity of each particular gut enzyme. Aliquots of the compound thus prepared are transferred to 1.7 mL microcentrifuge tubes and shaken in a 37° C. water bath for 15 minutes to allow compounds to equilibrate to temperature. After 15 minutes, 2 μL of the appropriate concentrated gut enzyme is added to each tube to achieve the final concentration desired. Chymotrypsin and trypsin are resuspended in 1 mM HCl. Also, as a control, compounds are treated with 2 μL of 1 mM HCl. Immediately following additions, 100 μL of sample is removed from the control tube and quenched with either 25 μL of chymotrypsin/trypsin quenching solution (1:1 1% TFA:Isopropanol). This sample will serve as T=0 min. A sampling procedure is repeated at various time intervals depending on the gut enzyme used. […] Trypsin has 30, 60, 120 and 180 minute samples. Once all points have been acquired, a final sample is removed from the control tube to make sure that observed degradation is not temperature or buffer related. […] RP-BPLC (acetonitrile gradient) is used to determine AUC for each sample and % degradation is calculated based from the T=0 min control. […]

[2] = Enzymatic stability: trypsin digest of calcitonin-oligomer conjugates; assay type: in vitro ADME; settings: 10 mM phosphate buffer, control tube without enzyme, pH 7.4, Control tube (1 mM HCl, no enzyme)
Method: Compounds, supplied as lyophilized powders, are resuspended in 10 mM phosphate buffer pH 7.4 and then submitted for concentration determination by HPLC. The phosphate buffer is used to create a solution with a pH that is optimum for activity of each particular gut enzyme. Aliquots of the compound thus prepared are transferred to 1.7 mL microcentrifuge tubes and shaken in a 37° C. water bath for 15 minutes to allow compounds to equilibrate to temperature. After 15 minutes, 2 μL of the appropriate concentrated gut enzyme is added to each tube to achieve the final concentration desired. Chymotrypsin and trypsin are resuspended in 1 mM HCl. Also, as a control, compounds are treated with 2 μL of 1 mM HCl. Immediately following additions, 100 μL of sample is removed from the control tube and quenched with either 25 μL of chymotrypsin/trypsin quenching solution (1:1 1% TFA:Isopropanol). This sample will serve as T=0 min. A sampling procedure is repeated at various time intervals depending on the gut enzyme used. Chymotrypsin has 15, 30 and 60 minute samples. Trypsin has 30, 60, 120 and 180 minute samples. Once all points have been acquired, a final sample is removed from the control tube to make sure that observed degradation is not temperature or buffer related. The chymotrypsin and trypsin samples may be collected directly into HPLC vials. RP-BPLC (acetonitrile gradient) is used to determine AUC for each sample and % degradation is calculated based from the T=0 min control. The results are provided below in Tables 1 to 4.

Male CF-1 mice = assay: Serum calcium lowering after single oral dose in fasted mice; assay type: in vivo; settings: single oral dose 2.0 μg/kg, average serum calcium
Method: Male CF-1 mice (Charles River, Raleigh, N.C.) weighing […] were housed in the Nobex vivarium in a light—(L:D cycle of 12:12, lights on at 0600 h), temperature—(21-23° C.), and humidity—(40-60% relative humidity) controlled room. Animals were permitted free access to laboratory chow (PMI Nutrition) and tap water. Mice were allowed to acclimate to housing conditions for 48-72 hours prior to the day of experiment.
Prior to dosing, mice were fasted overnight and water was provided ad libitum. Mice were randomly distributed into groups of five animals per time point and were administered a single oral dose of a PEG7-octyl-sCT, diconjugate (Octyl Di) according to the present invention or salmon calcitonin (sCT or Calcitonin) for comparison purposes. […]
At appropriate time points, mice were ether-anesthetized, the vena cavae exteriorized, and blood samples were obtained via a syringe fitted with a 25-gauge needle. […] Total serum calcium was determined for each animal using a calibrated Vitros DT60 II analyzer.
Serum calcium data were plotted and pharmacokinetic parameters determined via curve-fitting techniques using SigmaPlot software Version 4.1). Means and standard deviations (or standard errors) were calculated and plotted to determine effect differences among dosing groups.

[3] = test system: normal fasted beagle dogs; assay: Activity and inter-subject variability, oral liquid formulation, fasted beagle dogs; assay type: in vivo; settings: 0.25 mg/kg oral liquid, fasted beagles, blood glucose
From the text: As yet another example, a substantially monodispersed mixture of drug-oligomer conjugates preferably has an inter-subject variability that is less than the inter-subject variability of a polydispersed mixture of drug-oligomer conjugates having the same number average molecular weight as the substantially monodispersed mixture. As will be understood by those skilled in the art, the number average molecular weight of the substantially monodispersed mixture and the number average weight of the polydispersed mixture may be measured by various methods including, but not limited to, size exclusion chromatography. The inter-subject variability may be measured by various methods as will be understood by those skilled in the art. The inter-subject variability is preferably calculated as follows. The area under a dose response curve (AUC) (i.e., the area between the dose-response curve and a baseline value) is determined for each subject. The average AUC for all subjects is determined by summing the AUCs of each subject and dividing the sum by the number of subjects. The absolute value of the difference between the subject's AUC and the average AUC is then determined for each subject. The absolute values of the differences obtained are then summed to give a value that represents the inter-subject variability. Lower values represent lower inter-subject variabilities and higher values represent higher inter-subject variabilities.
An effective animal model for evaluating formulations uses normal fasted beagle dogs. These dogs are given 0.25 mg/kg of insulin conjugates to evaluate the efficacy of various formulations.
The protocol for dog experiments calls for a blood glucose measurement at time zero just before a drug is administered. The oral liquid dosage formulation is then squirted into the back of the dog's mouth. In each case, the dogs received 0.25 mg/kg of this solution. Blood is drawn at 15, 30, 60 and 120 minutes and glucose levels are measured and graphed. The lower the glucose levels, the better the activity of the insulin conjugate.

Compound: COCCOCCOCCOCCOCCOCCOCCOCCCCCCCC(=O)NCCCC[C@H](NC(=O)CNC(=O)[C@H](CC(C)C)NC(=O)[C@@H](NC(=O)[C@@H]1CSSC[C@H](N)C(=O)N[C@@H](CO)C(=O)N[C@@H](CC(N)=O)C(=O)N[C@@H](CC(C)C)C(=O)N[C@@H](CO)C(=O)N[C@@H]([C@@H](C)O)C(=O)N1)C(C)C)C(=O)N[C@@H](CC(C)C)C(=O)N[C@@H](CO)C(=O)N[C@@H](CCC(N)=O)C(=O)N[C@@H](CCC(=O)O)C(=O)N[C@@H](CC(C)C)C(=O)N[C@@H](Cc1c[nH]cn1)C(=O)N[C@@H](CCCCNC(=O)CCCCCCCOCCOCCOCCOCCOCCOCCOCCOC)C(=O)N[C@@H](CC(C)C)C(=O)N[C@@H](CCC(N)=O)C(=O)N[C@H](C(=O)N[C@@H](Cc1ccc(O)cc1)C(=O)N1CCC[C@H]1C(=O)N[C@@H](CCCNC(=N)N)C(=O)N[C@H](C(=O)N[C@@H](CC(N)=O)C(=O)N[C@H](C(=O)NCC(=O)N[C@@H](CO)C(=O)NCC(=O)N[C@H](C(=O)N1CCC[C@H]1C(N)=O)[C@@H](C)O)[C@@H](C)O)[C@@H](C)O)[C@@H](C)O
remaining at 1 h ([1]; 10 mM phosphate buffer, control tube without enzyme, pH 7.4, Control tube (1 mM HCl, no enzyme), Non-Formulated, time 60 min): 104%
remaining at 1 h ([2]; time 60 min): 103%
remaining at 2 h ([2]; time 120 min): 106%
remaining at 3 h ([2]; time 180 min): 104%
% Baseline Calcium Drop at 2.0 μg/kg dose (Male CF-1 mice): 21.0%

remaining at 10 min ([1]; chymotrypsin (0.5 U/mL) in phosphate buffer, pH 7.4, Non-Formulated, time 10 min, pH 7.4, 37° C., read-out: % Remaining Following 0.5 U/mL Chymotrypsin Digest): 73%
Compound: CC(C)C[C@H](NC(=O)[C@H](CCCCN)NC(=O)CNC(=O)[C@H](CC(C)C)NC(=O)[C@@H](NC(=O)[C@@H]1CSSC[C@H](N)C(=O)N[C@@H](CO)C(=O)N[C@@H](CC(N)=O)C(=O)N[C@@H](CC(C)C)C(=O)N[C@@H](CO)C(=O)N[C@@H]([C@@H](C)O)C(=O)N1)C(C)C)C(=O)N[C@@H](CO)C(=O)N[C@@H](CCC(N)=O)C(=O)N[C@@H](CCC(=O)O)C(=O)N[C@@H](CC(C)C)C(=O)N[C@@H](Cc1c[nH]cn1)C(=O)N[C@@H](CCCCN)C(=O)N[C@@H](CC(C)C)C(=O)N[C@@H](CCC(N)=O)C(=O)N[C@H](C(=O)N[C@@H](Cc1ccc(O)cc1)C(=O)N1CCC[C@H]1C(=O)N[C@@H](CCCNC(=N)N)C(=O)N[C@H](C(=O)N[C@@H](CC(N)=O)C(=O)N[C@H](C(=O)NCC(=O)N[C@@H](CO)C(=O)NCC(=O)N[C@H](C(=O)N1CCC[C@H]1C(N)=O)[C@@H](C)O)[C@@H](C)O)[C@@H](C)O)[C@@H](C)O [Salmon Calcitonin, salmon calcitonin, reference compound]

Compound: PEG4-hexyl-insulin, monoconjugate: non-polydispersed mixture of mPEG4-hexyl-insulin, B29 monoconjugates
activity (glucose lowering) versus polydispersed PEG7AVG-hexyl-insulin, monoconjugate [3]: higher activity
inter-subject variability versus polydispersed PEG7AVG-hexyl-insulin, monoconjugate [3]: less inter-subject variability

Compound: PEG7-hexyl-insulin, monoconjugate: human insulin monoconjugated at the B29 position with the activated oligomer of Example 18
activity (glucose lowering) versus polydispersed PEG7AVG-hexyl-insulin, monoconjugate [3]: higher activity
inter-subject variability versus polydispersed PEG7AVG-hexyl-insulin, monoconjugate [3]: less inter-subject variability

Compound: PEG10-hexyl-insulin, monoconjugate: non-polydispersed mixture of mPEG10-hexyl-insulin, B29 monoconjugates
activity (glucose lowering) versus polydispersed PEG7AVG-hexyl-insulin, monoconjugate [3]: higher activity
inter-subject variability versus polydispersed PEG7AVG-hexyl-insulin, monoconjugate [3]: less inter-subject variability
